# Source: ChEMBL document CHEMBL1671699, “Steady-state intrapulmonary pharmacokinetics and pharmacodynamics of posaconazole in lung transplant recipients” (Antimicrob Agents Chemother, 2010)
# What was measured:
# [1] = T>MIC90 for Aspergillus spp. infected lung transplant recipient plasma at 400 mg, po every 12 hrs by LS/MS analysis; format: functional
# [2] = Ratio of Cmax in lung transplant recipient epithelial lining fluid after 12 hrs to MIC90 for Aspergillus spp.; format: functional
# [3] = AUC (0 to 24 hrs) in lung transplant recipient alveolar cell at 400 mg, po every 12 hrs by LC/MS analysis; format: ADME, organism-based, Pneumocyte; set-up: time < 24 hr, dose 400 mg, route oral; conditions: human, in vivo
# [4] = tested on: Plasma; experiment: AUC (0 to 12 hrs) in lung transplant recipient plasma at 400 mg, po every 12 hrs by LC/MS analysis; format: ADME, organism-based; set-up: dose 400 mg, time < 12 hr, route oral; conditions: human, in vivo
# [5] = Ratio of drug level in lung transplant human recipient epithelial lining fluid to plasma at 400 mg, po every 12 hrs after 8 hrs by LS/MS analysis; format: ADME, organism-based
# [6] = Ratio of AUC (0 to 24 hrs) in lung transplant recipient alveolar cell to MIC90 for Aspergillus spp.; format: functional, Pneumocyte
# [7] = AUC (0 to 12 hrs) in lung transplant recipient epithelial lining fluid at 400 mg, po every 12 hrs by LC/MS analysis; format: ADME, organism-based; set-up: time < 12 hr, dose 400 mg, route oral; conditions: human, in vivo
# [8] = Ratio of drug level in lung transplant human recipient alveolar cell to plasma at 400 mg, po every 12 hrs after 5 hrs by LS/MS analysis; format: ADME, organism-based, Pneumocyte; conditions: other tissue
# [9] = Drug level in lung transplant recipient plasma at 400 mg, po every 12 hrs after 5 hrs by LS/MS analysis; format: ADME, organism-based; conditions: human, read-out: Drug uptake
# [10] = Ratio of fCmax in lung transplant recipient plasma after 12 hrs to MIC90 for Aspergillus spp.; format: functional
# [11] = Ratio of AUC (0 to 12 hrs) in lung transplant recipient epithelial lining fluid to MIC90 for Aspergillus spp.; format: functional
# [12] = AUC (0 to 12 hrs) in lung transplant recipient alveolar cell at 400 mg, po every 12 hrs by LC/MS analysis; format: ADME, organism-based, Pneumocyte; set-up: time < 12 hr, dose 400 mg, route oral; conditions: human, in vivo
# [13] = Drug level in lung transplant recipient alveolar cell at 400 mg, po every 12 hrs after 8 hrs by LS/MS analysis; format: ADME, organism-based, Pneumocyte; conditions: human, alveolar cells, read-out: Drug uptake
# [14] = Cmax in lung transplant recipient plasma at 400 mg, po every 12 hrs after 12 hrs by LC/MS analysis; format: ADME, organism-based; set-up: dose 400 mg, route oral; conditions: human
# [15] = Cmin in lung transplant recipient plasma at 400 mg, po every 12 hrs after 12 hrs by LC/MS analysis; format: ADME, organism-based; conditions: human, read-out: Cmin
# [16] = Ratio of drug level in lung transplant human recipient epithelial lining fluid to plasma at 400 mg, po every 12 hrs after 3 hrs by LS/MS analysis; format: ADME, organism-based
# [17] = Ratio of drug level in lung transplant human recipient alveolar cell to plasma at 400 mg, po every 12 hrs after 8 hrs by LS/MS analysis; format: ADME, organism-based, Pneumocyte; conditions: other tissue
# [18] = Drug level in lung transplant recipient plasma at 400 mg, po every 12 hrs after 12 hrs by LS/MS analysis; format: ADME, organism-based; conditions: human, read-out: Drug uptake
# [19] = Ratio of Cmax in lung transplant recipient plasma after 12 hrs to MIC90 for Aspergillus spp.; format: functional
# [20] = Ratio of drug level in lung transplant human recipient epithelial lining fluid to plasma at 400 mg, po every 12 hrs after 12 hrs by LS/MS analysis; format: ADME, organism-based
# [21] = Ratio of drug level in lung transplant human recipient alveolar cell to plasma at 400 mg, po every 12 hrs after 24 hrs by LS/MS analysis; format: ADME, organism-based, Pneumocyte; conditions: other tissue
# [22] = Ratio of AUC (0 to 12 hrs) in lung transplant recipient plasma to MIC90 for Aspergillus spp.; format: functional
# [23] = Ratio of drug level in lung transplant human recipient epithelial lining fluid to plasma at 400 mg, po every 12 hrs after 24 hrs by LS/MS analysis; format: ADME, organism-based
# [24] = Tmax in lung transplant recipient plasma at 400 mg, po every 12 hrs after 12 hrs by LC/MS analysis; format: ADME, organism-based; conditions: human
# [25] = Ratio of drug level in lung transplant human recipient alveolar cell to plasma at 400 mg, po every 12 hrs after 3 hrs by LS/MS analysis; format: ADME, organism-based, Pneumocyte; conditions: other tissue
# [26] = Drug level in lung transplant recipient alveolar cell at 400 mg, po every 12 hrs after 3 hrs by LS/MS analysis; format: ADME, organism-based, Pneumocyte; conditions: human, alveolar cells, read-out: Drug uptake
# [27] = Drug level in lung transplant recipient alveolar cell at 400 mg, po every 12 hrs after 12 hrs by LS/MS analysis; format: ADME, organism-based, Pneumocyte; conditions: human, alveolar cells, read-out: Drug uptake
# [28] = Ratio of fAUC (0 to 12 hrs) in lung transplant recipient plasma to MIC90 for Aspergillus spp.; format: functional
# [29] = Drug level in lung transplant recipient epithelial lining fluid at 400 mg, po every 12 hrs after 5 hrs by LS/MS analysis; format: ADME, organism-based; conditions: human, read-out: Drug uptake
# [30] = Tmax in lung transplant recipient epithelial lining fluid at 400 mg, po every 12 hrs after 12 hrs by LC/MS analysis; format: ADME, organism-based; conditions: human
# [31] = T>MIC90 for Aspergillus spp. infected lung transplant recipient epithelial lining fluid at 400 mg, po every 12 hrs by LS/MS analysis; format: functional
# [32] = Tmax in lung transplant recipient alveolar cell at 400 mg, po every 12 hrs after 12 hrs by LC/MS analysis; format: ADME, organism-based, Pneumocyte; conditions: human, alveolar cells
# [33] = Ratio of AUC (0 to 24 hrs) in lung transplant recipient epithelial lining fluid to MIC90 for Aspergillus spp.; format: functional
# [34] = Ratio of drug level in lung transplant human recipient alveolar cell to plasma at 400 mg, po every 12 hrs after 12 hrs by LS/MS analysis; format: ADME, organism-based, Pneumocyte; conditions: other tissue
# [35] = tested on: Plasma; experiment: AUC (0 to 24 hrs) in lung transplant recipient plasma at 400 mg, po every 12 hrs by LC/MS analysis; format: ADME, organism-based; set-up: dose 400 mg, time < 24 hr, route oral; conditions: human, in vivo
# [36] = Drug level in lung transplant recipient plasma at 400 mg, po every 12 hrs after 8 hrs by LS/MS analysis; format: ADME, organism-based; conditions: human, read-out: Drug uptake
# [37] = Ratio of AUC (0 to 12 hrs) in lung transplant recipient alveolar cell to MIC90 for Aspergillus spp.; format: functional, Pneumocyte
# [38] = Drug level in lung transplant recipient alveolar cell at 400 mg, po every 12 hrs after 24 hrs by LS/MS analysis; format: ADME, organism-based, Pneumocyte; conditions: human, alveolar cells, read-out: Drug uptake
# [39] = Drug level in lung transplant recipient epithelial lining fluid at 400 mg, po every 12 hrs after 12 hrs by LS/MS analysis; format: ADME, organism-based; conditions: human, read-out: Drug uptake
# [40] = Cmin in lung transplant recipient alveolar cell at 400 mg, po every 12 hrs after 12 hrs by LC/MS analysis; format: ADME, organism-based, Pneumocyte; conditions: human, alveolar cells, read-out: Cmin
# [41] = Drug level in lung transplant recipient plasma at 400 mg, po every 12 hrs after 3 hrs by LS/MS analysis; format: ADME, organism-based; conditions: human, read-out: Drug uptake
# [42] = Drug level in lung transplant recipient epithelial lining fluid at 400 mg, po every 12 hrs after 24 hrs by LS/MS analysis; format: ADME, organism-based; conditions: human, read-out: Drug uptake
# [43] = Cmax in lung transplant recipient alveolar cell at 400 mg, po every 12 hrs after 12 hrs by LC/MS analysis; format: ADME, organism-based, Pneumocyte; set-up: dose 400 mg, route oral; conditions: human, alveolar cells
# [44] = Drug level in lung transplant recipient epithelial lining fluid at 400 mg, po every 12 hrs after 3 hrs by LS/MS analysis; format: ADME, organism-based; conditions: human, read-out: Drug uptake
# [45] = Protein binding in human plasma at 400 mg, po BID by LS/MS analysis; format: ADME, organism-based; conditions: read-out: PPB
# [46] = Drug level in lung transplant recipient alveolar cell at 400 mg, po every 12 hrs after 5 hrs by LS/MS analysis; format: ADME, organism-based, Pneumocyte; conditions: human, alveolar cells, read-out: Drug uptake
# [47] = AUC (0 to 24 hrs) in lung transplant recipient epithelial lining fluid at 400 mg, po every 12 hrs by LC/MS analysis; format: ADME, organism-based; set-up: time < 24 hr, dose 400 mg, route oral; conditions: human, in vivo
# [48] = T>MIC90 for Aspergillus spp. infected lung transplant recipient alveolar cell at 400 mg, po every 12 hrs by LS/MS analysis; format: functional, Pneumocyte
# [49] = Ratio of fAUC (0 to 24 hrs) in lung transplant recipient plasma to MIC90 for Aspergillus spp.; format: functional
# [50] = Ratio of drug level in lung transplant human recipient epithelial lining fluid to plasma at 400 mg, po every 12 hrs after 5 hrs by LS/MS analysis; format: ADME, organism-based
# [51] = Drug level in lung transplant recipient plasma at 400 mg, po every 12 hrs after 24 hrs by LS/MS analysis; format: ADME, organism-based; conditions: human, read-out: Drug uptake
# [52] = Drug level in lung transplant recipient epithelial lining fluid at 400 mg, po every 12 hrs after 8 hrs by LS/MS analysis; format: ADME, organism-based; conditions: human, read-out: Drug uptake
# [53] = Ratio of AUC (0 to 24 hrs) in lung transplant recipient plasma to MIC90 for Aspergillus spp.; format: functional
# [54] = Cmax in lung transplant recipient epithelial lining fluid at 400 mg, po every 12 hrs after 12 hrs by LC/MS analysis; format: ADME, organism-based; set-up: dose 400 mg, route oral; conditions: human
# [55] = Ratio of Cmax in lung transplant recipient alveolar cell after 12 hrs to MIC90 for Aspergillus spp.; format: functional, Pneumocyte
smiles,measurement,setting,value
CC[C@@H]([C@H](C)O)n1ncn(-c2ccc(N3CCN(c4ccc(OC[C@@H]5CO[C@@](Cn6cncn6)(c6ccc(F)cc6F)C5)cc4)CC3)cc2)c1=O [POSACONAZOLE],T>MIC90,[1],24 h
same,Ratio,[2],2.6
same,AUC,[3],1060 µg/h/mL
same,AUC,[4],10.99 µg/h/mL
same,Kp at 8 h,[5],0.9
same,Ratio,[6],2324
same,AUC,[7],11.21 µg/h/mL
same,Ratio,[8],27.3
same,concentration at 5 h,[9],1100 ng/mL
same,Ratio,[10],0.04
same,Ratio,[11],18.42
same,AUC,[12],530.2 µg/h/mL
same,concentration at 8 h,[13],54700 ng/mL
same,Cmax,[14],1300 ng/mL
same,concentration at 12 h,[15],810 ng/mL
same,Kp at 3 h,[16],0.94
same,Ratio,[17],63.6
same,concentration at 12 h,[18],930 ng/mL
same,Ratio,[19],2.5
same,Kp at 12 h,[20],1
same,Ratio,[21],56.4
same,Ratio,[22],19.95
same,Kp at 24 h,[23],0.68
same,Tmax,[24],2.8 h
same,Ratio,[25],40.7
same,concentration at 3 h,[26],55400 ng/mL
same,concentration at 12 h,[27],36800 ng/mL
same,Ratio,[28],0.33
same,concentration at 5 h,[29],1300 ng/mL
same,Tmax,[30],5.3 h
same,T>MIC90,[31],24 h
same,Tmax,[32],3.2 h
same,Ratio,[33],36.84
same,Ratio,[34],53.3
same,AUC,[35],21.98 µg/h/mL
same,concentration at 8 h,[36],810 ng/mL
same,Ratio,[37],1162
same,concentration at 24 h,[38],49600 ng/mL
same,concentration at 12 h,[39],1200 ng/mL
same,concentration at 12 h,[40],31300 ng/mL
same,concentration at 3 h,[41],1300 ng/mL
same,concentration at 24 h,[42],500 ng/mL
same,Cmax,[43],55400 ng/mL
same,concentration at 3 h,[44],1100 ng/mL
same,fraction unbound,[45],< 0.02
same,concentration at 5 h,[46],31300 ng/mL
same,AUC,[47],22.42 µg/h/mL
same,T>MIC90,[48],24 h
same,Ratio,[49],0.6
same,Kp at 5 h,[50],0.57
same,concentration at 24 h,[51],740 ng/mL
same,concentration at 8 h,[52],1000 ng/mL
same,Ratio,[53],39.9
same,Cmax,[54],1300 ng/mL
same,Ratio,[55],110.8
